Test results: ChEMBL document CHEMBL3507680, “University of Dundee, Gates Library screen for HepG2 cell viability”

Experiment: Human HepG2 cell viability assay in 384 well format
Assay type: toxicity, cell-based
Set-up: dose 125 nL, time 70.5 hour; concentration not given beside the values
Settings: HepG2 cells, read-out: Inhibition

| SMILES | cytotoxicity at 70.5 h [%] |
| --- | --- |
| COc1ccc(/C=C/CN2CCC3(CC2)CN(C)C(=O)O3)cc1 | -6.12 |
| COc1ccc2c(C)nc(N3C[C@@H](C)O[C@@H](C)C3)nc2c1 | -16.1 |
| CC(=O)NCCNc1nc(-c2ccccn2)nc2c1c(C)nn2C | 1.86 |
| CN1CCC2(CCCN(S(=O)(=O)c3ccc(-c4cnco4)s3)C2)C1 (stereo not given) | -6.76 |
| CCn1cc(CN2C[C@H]3CC[C@@H]2CN(C(=O)C2CCC2)C3)cn1 | -6.91 |
| COCCn1ccnc1C1CCN(C(=O)C(O)c2ccc(F)cc2)CC1 (stereo not given) | -5.34 |
| COc1cccn(CC(=O)N(C)CCC2CCOCC2)c1=O | 25 |
| O=C(NCCCO)c1cnc(-c2ccccc2)nc1O | -2.27 |
| O=C(Nc1ccc2occc2c1)N1CCCC(O)(CO)CC1 (stereo not given) | -1.52 |
| C=C(C)COc1cccc(C(=O)NC(C)c2nnn[nH]2)c1 (stereo not given) | 18.4 |
| COc1ccc(-c2nc(CN3CCCC(OC)C3)c(C)o2)c(F)c1 (stereo not given) | 10.8 |
| NC1CCCc2nc(-c3ccccc3)ncc21 (stereo not given) | -8.86 |
| CCCOCCn1ncc(N2CCCC2)cc1=O | -1.75 |
| COc1cc(-c2nc(CN(CCO)CCO)c(C)o2)ccc1F | 2.15 |
| C[C@@H]1CN(CCOCc2ccccc2)CC[C@@]1(O)C1CCC1 | 37.7 |
| Cc1ccsc1[C@@H]1CCN(C(=O)c2ccc(-c3cc[nH]n3)cc2)C[C@H]1O | -10.8 |
| Cc1nc(CN2CCCC(Cn3cc(CCO)nn3)C2)c2ccccn12 (stereo not given) | -5.43 |
| O=C(COc1ccccc1O)N1CCOC(C(F)(F)F)C1 (stereo not given) | 17.8 |
| Cn1ncc2c(NC3CCSC3)nc(-c3ccncc3)nc21 (stereo not given) | 3.97 |
| Cc1n[nH]c(C)c1CCNC(=O)Nc1ccc2c(c1)COC2 | -19 |
| Cc1ccc(-n2cccn2)cc1S(=O)(=O)N1C[C@H](C2CC2)[C@@H](N)C1 | 11.6 |
| O=c1[nH]cnc2c1CCN(S(=O)(=O)c1ccc(Cl)cc1)C2 | -11.8 |
| CCc1ccc(CN2CCNC(C(=O)N3CCN(C)CC3)C2)nc1 (stereo not given) | -0.217 |
| Cc1ncsc1CCCNC(=O)C1CC2(CCNCC2)CN1C (stereo not given) | 13 |
| CC(C)[C@@H](C)NC1CCN(c2ccc(-n3ccnc3)cc2)CC1 | -12.5 |
| C=C(C)COc1cccc(C(=O)N(CC)Cc2nc(COC)no2)c1 | -7.82 |
| COc1cccc(CC(=O)N2CCC(Cc3nnc(SC)n3C)CC2)c1 | -23.6 |
| CCCn1ncnc1C(C)NC(=O)C1CCN(CC(N)=O)CC1 (stereo not given) | -6.92 |

| SMILES | cytotoxicity at 70.5 h [%] |
| --- | --- |
| CN1C[C@H]2CNC[C@@]2(C(=O)NC2CCN(c3ncccc3C#N)CC2)C1 | 1.46 |
| CCOCc1nc2c(c(N(C)Cc3nonc3C)n1)CCNCC2 | -11.4 |
| Nc1nc2c(c(N3CCC(CCn4cccn4)CC3)n1)CCNCC2 | -5.53 |
| Cc1ncc2c(c1CNC(=O)C1(c3ccc(F)cc3)CC1)CCNC2 | -5.4 |
| O=C(c1cc(-n2cccn2)ccc1Cl)N1CCC(N2CCCC2=O)CC1 | -9.31 |
| CNc1ncc(CN(C)C(=O)c2cccc(-n3cnnc3)c2)cn1 | 11.7 |
| CC(C)c1ccc(CC(=O)N2CCCC3(CN(C)C(=O)O3)C2)cc1 (stereo not given) | 22.5 |
| CCc1ccc(CN(C)C(=O)c2ccc(CSc3nnc[nH]3)o2)nc1 | -11.2 |
| CC(C)C1CN(c2ncccc2Cl)CCC(=O)N1Cc1ccc(F)cc1 (stereo not given) | 4.1 |
| CN1CCN(Cc2noc(CC3CCc4ccccc43)n2)CC1 (stereo not given) | -7.61 |
| O=C(c1ccccn1)N1C[C@@H]2CC[C@H](C1)N(C(=O)c1ccsc1)C2 | 26.5 |
| Cc1[nH]ccc1C(=O)N1CCCC(c2ccc(C(=O)O)cc2)C1 (stereo not given) | -22.6 |
| O=C(N[C@@H]1CCCNC1)C1(Oc2ccc(Cl)cc2)CCNCC1 | 13.1 |
| O=C(O)[C@@H]1CN(CC2CCC2)C[C@H]1c1ccc(F)cc1 | -7.16 |
| Cc1nn(C)c2nc(N(C)CCN(C)C)sc12 | -9.29 |
| CCc1cc(C(=O)N2CCC3(CCCN(CC4CC4)C3=O)C2)cs1 (stereo not given) | 6.71 |
| Cc1c[nH]c(C(=O)N2CCCC2c2ccc(C(=O)N3CCSCC3)s2)n1 (stereo not given) | -11.4 |
| CCC(OC)C(=O)NCc1cc2n(n1)CCCN(C1CCCCC1)C2 (stereo not given) | -9.86 |
| CC(=O)NCc1nnc2n1CCN(c1ncnc3c(C)csc13)CC2 | 27 |
| O=C(O)C1CN(Cc2cnc(C3CCCCC3)nc2)CCO1 (stereo not given) | 17.1 |
| O=C(CC1CCCC1)N1CCC2(CC1)[C@H](O)C[C@@H]2O | -12.2 |
| Cc1ccc(CCNc2ncc(C)c(-c3ccnn3C)n2)s1 | -8.02 |
| CN(CCC1CCCCO1)c1nncc(-c2ccccc2)n1 (stereo not given) | -0.965 |
| CC(C)(O)CCc1cccc(C(=O)NCCC2CCOC2)c1 (stereo not given) | -0.764 |
| COc1ccc(OC)c(C2CCN(C(=O)C3CCN(C(C)C)CC3)C2)c1 (stereo not given) | -8.95 |
| CC[C@@]1(O)CCN(C(=O)c2ccc(-n3cnnc3)cc2)C[C@H]1O | 20.9 |
| Clc1ccccc1OC1CN(CC2CCOC2)C1 (stereo not given) | 8.25 |
